Data reported in patent US12539292B2, “BRM targeting compounds and associated methods of use” (Arvinas Operations, Inc., priority 2018, dated 2026).
Like-named read-outs stand apart in the source and are kept apart here. Each block holds one molecule with its values, some of them ahead of it.

Biological target: T1, BRM (Homo sapiens, UniProt P51531)
T1 construct: In-Cell Western Screen of BRM Degradation in SW1573 Cells; endogenous in cells; host or cells: SW1573
Assay: In-cell Western screen of BRM degradation in SW1573 cells (Dmax and DC50)
Format: cell-based
In short: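 Overnight compound treatment (18-20 h, final DMSO 0.1%) of SW1573 cells in DMEM with 10% FBS precedes fixation and in-cell Western staining with 800/680 nm dye-labelled secondaries. Plate images give DC50 and maximal degradation.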

[1] = BRM degradation, SW1573 cells, read-out: DC50
[2] = BRM degradation, SW1573 cells, tested at the top concentration of between 0.3 and 10 μM, read-out: Dmax (%) (% degraded)
[3] = BRM degradation, SW1573 cells, when tested at the top concentration of between 0.3 and 10 μM, read-out: Dmax (%) (% degraded)
[4] = BRM degradation, SW1573 cells, read-out: Dmax (% degraded)
[5] = SW1573, % degraded, when tested at the top concentration of between 0.3 and 10 μM, read-out: BRM Dmax (%)

T1 sequence (P51531 whole entry): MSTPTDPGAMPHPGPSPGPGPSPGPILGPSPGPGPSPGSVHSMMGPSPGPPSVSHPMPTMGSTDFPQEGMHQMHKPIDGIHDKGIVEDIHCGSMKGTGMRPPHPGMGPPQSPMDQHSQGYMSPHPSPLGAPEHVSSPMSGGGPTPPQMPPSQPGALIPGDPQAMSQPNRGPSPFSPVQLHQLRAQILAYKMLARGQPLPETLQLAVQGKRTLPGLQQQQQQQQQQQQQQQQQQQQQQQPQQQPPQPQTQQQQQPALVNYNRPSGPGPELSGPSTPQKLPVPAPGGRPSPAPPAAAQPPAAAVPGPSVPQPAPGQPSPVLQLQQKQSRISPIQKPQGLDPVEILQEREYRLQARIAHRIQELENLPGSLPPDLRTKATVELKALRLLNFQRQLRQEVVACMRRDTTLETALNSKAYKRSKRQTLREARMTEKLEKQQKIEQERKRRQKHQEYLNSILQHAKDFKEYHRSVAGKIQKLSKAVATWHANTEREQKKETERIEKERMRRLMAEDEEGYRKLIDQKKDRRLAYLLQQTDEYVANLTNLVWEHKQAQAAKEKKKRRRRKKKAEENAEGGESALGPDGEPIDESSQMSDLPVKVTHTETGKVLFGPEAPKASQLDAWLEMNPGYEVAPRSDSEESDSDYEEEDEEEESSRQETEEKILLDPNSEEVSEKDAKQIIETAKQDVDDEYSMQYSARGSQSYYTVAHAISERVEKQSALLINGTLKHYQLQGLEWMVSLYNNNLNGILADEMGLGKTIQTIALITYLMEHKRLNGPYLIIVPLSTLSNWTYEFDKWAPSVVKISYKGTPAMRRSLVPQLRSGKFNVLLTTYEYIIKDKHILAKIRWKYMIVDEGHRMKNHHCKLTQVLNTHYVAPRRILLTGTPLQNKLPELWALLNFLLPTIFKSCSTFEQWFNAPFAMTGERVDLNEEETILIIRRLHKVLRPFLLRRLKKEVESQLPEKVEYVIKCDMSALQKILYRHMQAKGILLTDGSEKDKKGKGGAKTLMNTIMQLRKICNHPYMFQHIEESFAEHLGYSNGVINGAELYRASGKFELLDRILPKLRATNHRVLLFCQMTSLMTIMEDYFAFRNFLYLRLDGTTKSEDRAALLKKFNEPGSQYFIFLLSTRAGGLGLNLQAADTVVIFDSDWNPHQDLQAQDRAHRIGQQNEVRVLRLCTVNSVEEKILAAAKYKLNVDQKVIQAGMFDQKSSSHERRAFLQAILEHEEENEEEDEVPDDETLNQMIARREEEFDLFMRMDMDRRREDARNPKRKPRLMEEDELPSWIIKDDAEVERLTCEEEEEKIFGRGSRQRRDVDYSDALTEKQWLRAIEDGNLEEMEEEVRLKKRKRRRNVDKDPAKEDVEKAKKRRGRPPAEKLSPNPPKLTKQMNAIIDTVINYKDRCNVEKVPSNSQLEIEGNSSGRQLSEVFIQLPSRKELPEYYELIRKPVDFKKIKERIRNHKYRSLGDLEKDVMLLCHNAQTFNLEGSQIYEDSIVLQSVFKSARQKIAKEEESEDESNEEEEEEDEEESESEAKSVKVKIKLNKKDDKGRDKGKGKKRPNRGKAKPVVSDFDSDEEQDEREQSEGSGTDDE

SMILES: Cc1ncsc1-c1ccc([C@@H](NC(=O)[C@@H]2C[C@@H](O)CN2C(=O)[C@@H](c2cc(OCCN3CCC(O[C@H]4C[C@H](Oc5cc(N6C7CCC6CN(c6cc(-c8ccccc8O)nnc6N)C7)ccn5)C4)CC3)no2)C(C)C)C(F)F)cc1 [compound 268, (2S,4R)-1-((2R)-2-(3-(2-(4-((1r,3R)-3-((4-(3-(3-amino-6-(2-hydroxyphenyl)pyridazin-4-yl)-3,8-diazabicyclo[3.2.1]octan-8-yl)pyridin-2-yl)oxy)cyclobutoxy)piperidin-1-yl)ethoxy)isoxazol-5-yl)-3-methylbutanoyl)-N-((R)-2,2-difluoro-1-(4-(4-methylthiazol-5-yl)phenyl)ethyl)-4-hydroxypyrrolidine-2-carboxamide]
DC50 [1]: < 2.5 nM | Dmax [2]: > 75%

SMILES: Cc1ncsc1-c1ccc([C@H](C)NC(=O)[C@@H]2C[C@@H](O)CN2C(=O)[C@@H](c2cc(OCCN3C[C@H]4C[C@@H]3CN4CCOc3cc(N4C5CCC4CN(c4cc(-c6ccccc6O)nnc4N)C5)ccn3)no2)C(C)C)cc1 [compound 136, (2S,4R)-1-((2R)-2-(3-(2-((1R,4R)-5-(2-((4-(3-(3-amino-6-(2-hydroxyphenyl)pyridazin-4-yl)-3,8-diazabicyclo[3.2.1]octan-8-yl)pyridin-2-yl)oxy)ethyl)-2,5-diazabicyclo[2.2.1]heptan-2-yl)ethoxy)isoxazol-5-yl)-3-methylbutanoyl)-4-hydroxy-N-((S)-1-(4-(4-methylthiazol-5-yl)phenyl)ethyl)pyrrolidine-2-carboxamide]
DC50 [1]: < 2.5 nM | Dmax [3]: > 75%

DC50 [1]: > 30 nM
SMILES: CC(C)[C@H](C(=O)N1C[C@H](O)C[C@H]1C(=O)N[C@@H](C)c1ccc(-n2ccnn2)cc1)c1cc(OCCN2CCN(CCOc3cc(N4C5CCC4CN(c4cc(-c6ccccc6O)nnc4N)C5)ccn3)CC2)no1 [compound 292, (2S,4R)-N-((S)-1-(4-(1H-1,2,3-triazol-1-yl)phenyl)ethyl)-1-((2S)-2-(3-(2-(4-(2-((4-(3-(3-amino-6-(2-hydroxyphenyl)pyridazin-4-yl)-3,8-diazabicyclo[3.2.1]octan-8-yl)pyridin-2-yl)oxy)ethyl)piperazin-1-yl)ethoxy)isoxazol-5-yl)-3-methylbutanoyl)-4-hydroxypyrrolidine-2-carboxamide]

SMILES: Cc1ncsc1-c1ccc(CNC(=O)[C@@H]2C[C@@H](O)CN2C(=O)[C@@H](c2cc(OCCOCCOCCOCCOc3cc(N4C5CCC4CN(c4cc(-c6ccccc6O)nnc4N)C5)ccn3)no2)C(C)C)cc1 [compound 30, (2S,4R)-1-[(2R)-2-(3-[[1-(4-[3-[3-amino-6-(2-hydroxyphenyl)pyridazin-4-yl]-3,8-diazabicyclo[3.2.1]octan-8-yl]pyridin-2-yl)-1,4,7,10-tetraoxadodecan-12-yl]oxy]-1,2-oxazol-5-yl)-3-methylbutanoyl]-4-hydroxy-N-[[4-(4-methyl-1,3-thiazol-5-yl)phenyl]methyl]pyrrolidine-2-carboxamide]
DC50 [1]: < 2.5 nM | Dmax [3]: > 75%

Dmax (BRM degradation, SW1573 cells, Table 2D, read-out: **Dmax (%) (% degraded)): > 75% | DC50 (BRM degradation, SW1573 cells, Table 2D, read-out: *DC50): < 2.5 nM
SMILES: Cc1ncsc1-c1ccc([C@H](C)NC(=O)[C@@H]2C[C@@H](O)CN2C(=O)[C@@H](c2cc(N3CCN(CCN4CCC(C(C)n5cc(-c6cc(-c7ccccc7O)nnc6N)cn5)CC4)CC3)no2)C(C)C)cc1 (stereo partly drawn) [compound 591, (2S,4R)-1-((2R)-2-(3-(4-(2-(4-(1-(4-(3-amino-6-(2-hydroxyphenyl)pyridazin-4-yl)-1H-pyrazol-1-yl)ethyl)piperidin-1-yl)ethyl)piperazin-1-yl)isoxazol-5-yl)-3-methylbutanoyl)-4-hydroxy-N-((S)-1-(4-(4-methylthiazol-5-yl)phenyl)ethyl)pyrrolidine-2-carboxamide]

SMILES: Cc1ncsc1-c1ccc([C@H](C)NC(=O)[C@@H]2C[C@@H](O)CN2C(=O)[C@@H](c2cc(OCC#Cc3ccc(O[C@H]4C[C@H](Oc5cc(N6C7CCC6CN(c6cc(-c8ccccc8O)nnc6N)C7)ccn5)C4)cn3)no2)C(C)C)cn1 [compound 237, (2S,4R)-1-((2R)-2-(3-((3-(5-((1r,3R)-3-((4-(3-(3-amino-6-(2-hydroxyphenyl)pyridazin-4-yl)-3,8-diazabicyclo[3.2.1]octan-8-yl)pyridin-2-yl)oxy)cyclobutoxy)pyridin-2-yl)prop-2-yn-1-yl)oxy)isoxazol-5-yl)-3-methylbutanoyl)-4-hydroxy-N-((S)-1-(6-(4-methylthiazol-5-yl)pyridin-3-yl)ethyl)pyrrolidine-2-carboxamide]
DC50 [1]: < 2.5 nM | Dmax [2]: > 75%

SMILES: CC(C)[C@@H](C(=O)N1C[C@H](O)C[C@H]1C(=O)N[C@@H](C)c1ccc(C#N)cc1)c1cc(N2CCC(CN3CCC(O[C@H]4C[C@H](Oc5cc(N6C7CCC6CN(c6cc(-c8ccccc8O)nnc6N)C7)ccn5)C4)CC3)CC2)no1 [compound 640, (2S,4R)-1-((2R)-2-(3-(4-((4-((1r,3r)-3-((4-(3-(3-amino-6-(2-hydroxyphenyl)pyridazin-4-yl)-3,8-diazabicyclo[3.2.1]octan-8-yl)pyridin-2-yl)oxy)cyclobutoxy)piperidin-1-yl)methyl)piperidin-1-yl)isoxazol-5-yl)-3-methylbutanoyl)-N-((S)-1-(4-cyanophenyl)ethyl)-4-hydroxypyrrolidine-2-carboxamide]
DC50 [1]: < 2.5 nM | Dmax [4]: > 75%

SMILES: Cc1nccn1-c1ccc([C@H](C)NC(=O)[C@@H]2C[C@@H](O)CN2C(=O)[C@@H](c2cc(N3CCC(OC4CCN(C[C@H]5C[C@H](Oc6cc(N7C8CCC7CN(c7cc(-c9ccccc9O)nnc7N)C8)ccn6)C5)CC4)CC3)no2)C(C)C)cc1 [compound 478, (2S,4R)-1-((2R)-2-(3-(4-((1-(((1r,3r)-3-((4-(3-(3-amino-6-(2-hydroxyphenyl)pyridazin-4-yl)-3,8-diazabicyclo[3.2.1]octan-8-yl)pyridin-2-yl)oxy)cyclobutyl)methyl)piperidin-4-yl)oxy)piperidin-1-yl)isoxazol-5-yl)-3-methylbutanoyl)-4-hydroxy-N-((S)-1-(4-(2-methyl-1H-imidazol-1-yl)phenyl)ethyl)pyrrolidine-2-carboxamide]
Dmax [5]: > 75% | DC50 (target protein degradation, read-out: BRM DC50): < 2.5 nM

SMILES: Cc1ncsc1-c1ccc([C@H](C)NC(=O)[C@@H]2C[C@@H](O)CN2C(=O)[C@@H](c2cc(OCCN3CCC(O[C@H]4C[C@H](Oc5cc(N6C7CCC6CN(c6cc(-c8ccccc8OP(=O)(O)O)nnc6N)C7)ccn5)C4)CC3)no2)C(C)C)cc1 [compound 506, 2-(6-amino-5-(8-(2-((1R,3r)-3-((1-(2-((5-((R)-1-((2S,4R)-4-hydroxy-2-(((S)-1-(4-(4-methylthiazol-5-yl)phenyl)ethyl)carbamoyl)pyrrolidin-1-yl)-3-methyl-1-oxobutan-2-yl)isoxazol-3-yl)oxy)ethyl)piperidin-4-yl)oxy)cyclobutoxy)pyridin-4-yl)-3,8-diazabicyclo[3.2.1]octan-3-yl)pyridazin-3-yl)phenyl dihydrogen phosphate]
DC50 (BRM degradation, read-out: BRM DC50): < 2.5 nM | Dmax [5]: > 75%

SMILES: Cc1ncsc1-c1ccc([C@H](C)NC(=O)[C@@H]2C[C@@H](O)CN2C(=O)[C@@H](c2cc(OCCC3(O)CCN(C[C@H]4C[C@H](Oc5cc(N6C7CCC6CN(c6cc(-c8ccccc8O)nnc6N)C7)ccn5)C4)CC3)no2)C(C)C)cc1 [compound 436, (2S,4R)-1-((2R)-2-(3-(2-(1-(((1r,3R)-3-((4-(3-(3-amino-6-(2-hydroxyphenyl)pyridazin-4-yl)-3,8-diazabicyclo[3.2.1]octan-8-yl)pyridin-2-yl)oxy)cyclobutyl)methyl)-4-hydroxypiperidin-4-yl)ethoxy)isoxazol-5-yl)-3-methylbutanoyl)-4-hydroxy-N-((S)-1-(4-(4-methylthiazol-5-yl)phenyl)ethyl)pyrrolidine-2-carboxamide]
Dmax [5]: > 75% | DC50 (degradation of BRM, read-out: BRM DC50): < 2.5 nM

SMILES: Cc1nccn1-c1ccc([C@H](C)NC(=O)[C@@H]2C[C@@H](O)CN2C(=O)[C@H](c2cc(OC/C=C/c3ccc(O[C@H]4C[C@H](Oc5cc(N6C7CCC6CN(c6cc(-c8ccccc8O)nnc6N)C7)ccn5)C4)cn3)no2)C(C)C)cc1 [compound 276, (2S,4R)-1-((2S)-2-(3-(((E)-3-(5-((1r,3S)-3-((4-(3-(3-amino-6-(2-hydroxyphenyl)pyridazin-4-yl)-3,8-diazabicyclo[3.2.1]octan-8-yl)pyridin-2-yl)oxy)cyclobutoxy)pyridin-2-yl)allyl)oxy)isoxazol-5-yl)-3-methylbutanoyl)-4-hydroxy-N-((S)-1-(4-(2-methyl-1H-imidazol-1-yl)phenyl)ethyl)pyrrolidine-2-carboxamide]
DC50 [1]: > 30 nM

DC50 [1]: < 2.5 nM | Dmax [4]: > 75%
SMILES: CC(C)[C@@H](C(=O)N1C[C@H](O)C[C@H]1C(=O)N[C@@H](C)c1ccc(C#N)cc1)c1cc(N2CCC(CN3CCC(O[C@H]4C[C@H](C#C[C@@H](C)n5cc(-c6cc(-c7ccccc7O)nnc6N)cn5)C4)CC3)CC2)no1 (single isomer, unassigned) [compound 698]

SMILES: COCc1ncsc1-c1ccc([C@H](C)NC(=O)[C@@H]2C[C@@H](O)CN2C(=O)[C@H](c2cc(OCCN3CCC(O[C@H]4C[C@H](Oc5cc(N6C7CCC6CN(c6cc(-c8ccccc8O)nnc6N)C7)ccn5)C4)CC3)no2)C(C)C)cc1 [compound 184, (2S,4R)-1-((2S)-2-(3-(2-(4-((1r,3S)-3-((4-(3-(3-amino-6-(2-hydroxyphenyl)pyridazin-4-yl)-3,8-diazabicyclo[3.2.1]octan-8-yl)pyridin-2-yl)oxy)cyclobutoxy)piperidin-1-yl)ethoxy)isoxazol-5-yl)-3-methylbutanoyl)-4-hydroxy-N-((S)-1-(4-(4-(methoxymethyl)thiazol-5-yl)phenyl)ethyl)pyrrolidine-2-carboxamide]
DC50 [1]: > 30 nM
